Publication PMC10978252 (Journal of medicinal chemistry, 2024)
Entries after “also recorded” stand apart in the source; their conditions may differ.

How the values were obtained:
HIV-Nef [1] = target: T1, HIV-Nef (Human immunodeficiency virus type 1, UniProt P03406); conditions: cited from earlier work; for MHC-I HLA-A2 restoration in HIV-infected primary T cells, side-by-side assays: B9 up to more than 10μM, CMA nanomolar
T1 sequence (P03406 2-206): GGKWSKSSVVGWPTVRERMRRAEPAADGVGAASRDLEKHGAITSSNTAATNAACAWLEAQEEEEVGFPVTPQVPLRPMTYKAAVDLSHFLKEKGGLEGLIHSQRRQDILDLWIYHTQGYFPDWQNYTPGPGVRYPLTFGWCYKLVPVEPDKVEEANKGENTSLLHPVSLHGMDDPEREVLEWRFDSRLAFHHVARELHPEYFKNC

[2] = test system: Nef overexpressing HEK293T cells; conditions: single digit micromolar concentrations; cited from earlier work
[3] = test system: HIV-1 infected CD4+ T cells; conditions: single digit micromolar concentrations; cited from earlier work
primary CD4+ T cells [4] = experiment: 24 h viability
Nef = conditions: cited from earlier work
V-ATPase [5] = target: V-ATPase (Homo sapiens, UniProt P27449); experiment: cell-based; type: cell-based; conditions: for V-ATPase inhibition (Lysotracker), in words / Lysotracker IC50: 24 h; for Lysotracker IC50: lysosomal neutralization / V-ATPase inhibition
Sequence of V-ATPase (Homo sapiens, UniProt P27449) (P27449 whole entry, looked up): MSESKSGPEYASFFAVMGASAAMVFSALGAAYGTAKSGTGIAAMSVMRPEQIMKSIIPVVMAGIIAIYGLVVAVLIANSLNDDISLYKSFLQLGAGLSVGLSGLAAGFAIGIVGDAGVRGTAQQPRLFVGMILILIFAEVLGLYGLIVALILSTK

MHC-I HLA-A2 = type: cell-based, human; conditions: ΔGPEN; treated 24 h
HIV-Nef [6] = target: T1, HIV-Nef; type: cell-based, HIV-1; conditions: for restoration of MHC-I levels on infected (GFP+) cells: ΔGPE transduced 48 h then treated 24 h, compared to uninfected (GFP-) cells; for Nef inhibitory potency, in words (relative to parent or comparator) / Nef IC50: 24 h; for Nef IC50: HIV ΔGPE transduced primary CD4+ T cells, upper limit of assay 1000 nM
primary CD4+ T cells [7] = experiment: 72 h viability
V-ATPase [8] = conditions: cited from earlier work

Compound: CC[C@H](C)C(=O)O[C@H]1C[C@@H](C)C=C2C=C[C@H](C)[C@H](CC[C@@H]3C[C@@H](O)CC(=O)O3)[C@H]21 [Lovastatin]
- MHC-I HLA-A2 restoration in HIV-infected primary T cells, side-by-side assays (HIV-Nef [1]): partially restored
- concentration for partial MHC-I restoration, relative to CMA (HIV-Nef [1]): 2,000 fold
- surface expression of SERINC5 [2]: increases surface expression
- surface expression of MHC-1 and CD4 [3]: increases surface expression

Compound: C[C@@H]1C[C@H](C)C[C@H](C)[C@@H](O)CC(=O)O[C@H]([C@@H]2CCC[C@H]2C(=O)O)C/C=C/C=C(/C#N)[C@H](O)[C@@H](C)C1 [S1, borrelidin]
- toxicity at 24 h, in words (primary CD4+ T cells [4]): toxic at 24-hrs

Compound: C/C=C/[C@H]1O[C@@](O)([C@@H](C)[C@H](O)[C@H](C)[C@H]2OC(=O)/C(OC)=C/C(C)=C/[C@@H](C)[C@@H](O)[C@@H](CC)[C@@H](O)[C@H](C)C/C(C)=C/C=C/[C@@H]2OC)C[C@@H](O[C@H]2C[C@@H](O)[C@H](OC(N)=O)[C@@H](C)O2)[C@@H]1C [compound 1, concanamycin A, reference compound]
- binding between Nef and CMA (Nef): no binding
- MHC-I HLA-A2 restoration in HIV-infected primary T cells, side-by-side assays (HIV-Nef [1]): near-fully restore
- IC50 (V-ATPase [5]): 1.7 nM
- MHC-I surface levels in cells lacking Nef (MHC-I HLA-A2): did not substantially alter MHC-I surface levels
- restoration of MHC-I levels on infected (GFP+) cells (HIV-Nef [6]): restored MHC-I levels

Compound: CO/C1=C\C(C)=C\[C@@H](C)[C@@H](O)[C@@H](C)C/C(C)=C/C=C/[C@H](OC)[C@@H]([C@@H](C)[C@@H](O)[C@H](C)[C@@]2(OC)C[C@@H](O)[C@H](C)[C@@H](C(C)C)O2)OC1=O [compound 8]
- Nef inhibitory potency, in words (relative to parent or comparator) (HIV-Nef [6]): decreased potency

Compound: CO/C1=C\C(C)=C\[C@@H](C)[C@@H](O)[C@@H](C)C/C(C)=C/C=C/[C@H](OC)[C@@H]([C@@H](C)[C@@H](O)[C@H](C)[C@H]2C[C@@H](O)[C@H](C)[C@@H](C(C)C)O2)OC1=O [compound 9, 19-deoxy Baf A1]
- Nef inhibitory potency, in words (relative to parent or comparator) (HIV-Nef [6]): decreased potency

Compound: CO/C1=C\C(C)=C\[C@@H](C)[C@@H](O)[C@@H](C)C/C(C)=C/C=C/[C@H](OC)[C@@H]([C@@H](C)[C@@H](O)[C@H](C)[C@H]2C[C@@H](OC)[C@H](C)[C@@H](C(C)C)O2)OC1=O [compound 10]
- Nef inhibitory potency, in words (relative to parent or comparator) (HIV-Nef [6]): decreased potency

Compound: CO/C1=C\C(C)=C\[C@@H](C)[C@@H](O)[C@@H](C)C/C(C)=C/C=C/[C@H](OC)[C@@H]([C@@H](C)[C@@H](O)[C@H](C)[C@H]2C=C(O)[C@H](C)[C@@H](C(C)C)O2)OC1=O [compound 11]
- Nef inhibitory potency, in words (relative to parent or comparator) (HIV-Nef [6]): decreased potency

Compound: C=CC(C)C(OC(=O)[C@@H](C)[C@H](O)[C@H](C)[C@H]1OC(=O)/C(OC)=C/C(C)=C/[C@@H](C)[C@@H](O)[C@@H](C)C/C(C)=C/C=C/[C@@H]1OC)C(C)C (stereo partly drawn) [compound 12]
- toxicity, in words (primary CD4+ T cells [7]): Dramatic reductions
- V-ATPase inhibition (Lysotracker), in words (V-ATPase [5]): Dramatic reductions
- decrease in Nef potency compared to 2 (HIV-Nef [6]; vs Baf A1): 26 fold

Compound: CCCCC(=O)O[C@@H]1C[C@](O)([C@@H](C)[C@H](O)[C@H](C)[C@H]2OC(=O)/C(OC)=C/C(C)=C/[C@@H](C)[C@@H](O)[C@@H](C)C/C(C)=C/C=C/[C@@H]2OC)O[C@H](C(C)C)[C@H]1C [compound 14]
- Nef inhibitory potency, in words (relative to parent or comparator) (HIV-Nef [6]): decreased potency; also recorded: opposite effect

Compound: CCCCCCCCC(=O)O[C@@H]1C[C@](O)([C@@H](C)[C@H](O)[C@H](C)[C@H]2OC(=O)/C(OC)=C/C(C)=C/[C@@H](C)[C@@H](O)[C@@H](C)C/C(C)=C/C=C/[C@@H]2OC)O[C@H](C(C)C)[C@H]1C [compound 15]
- Nef inhibitory potency, in words (relative to parent or comparator) (HIV-Nef [6]): decreased potency; also recorded: opposite effect

Compound: C=C/C=C/C(=O)O[C@@H]1C[C@](O)([C@@H](C)[C@H](O)[C@H](C)[C@H]2OC(=O)/C(OC)=C/C(C)=C/[C@@H](C)[C@@H](O)[C@@H](C)C/C(C)=C/C=C/[C@@H]2OC)O[C@H](C(C)C)[C@H]1C [compound 16]
- Nef inhibitory potency, in words (relative to parent or comparator) (HIV-Nef [6]): decreased potency; also recorded: improved potency compared to 14 or 15

Compound: CO/C1=C\C(C)=C\[C@@H](C)[C@@H](O)[C@@H](C)C/C(C)=C/C=C/[C@H](OC)[C@@H]([C@@H](C)[C@@H](O)[C@H](C)[C@@]2(O)C[C@@H](O[C@@H]3O[C@@H](C)[C@H](O)[C@@H](O)[C@H]3OC)[C@H](C)[C@@H](C(C)C)O2)OC1=O [compound 18, leucanicidin, reference compound]
- toxicity, in words (primary CD4+ T cells [7]): significantly more toxic

Compound: C/C=C/C=C/[C@H]1O[C@@](O)([C@@H](C)[C@H](O)[C@H](C)[C@H]2OC(=O)/C(OC)=C/C(C)=C/[C@@H](C)[C@@H](O)[C@@H](C)C/C(C)=C/C=C/[C@@H]2OC)C[C@@H](O[C@H]2C[C@@H](O)[C@H](O)[C@@H](C)O2)[C@@H]1C [compound 19, PC-766B, reference compound]
- toxicity, in words (primary CD4+ T cells [7]): significantly more toxic

Compound: CO/C1=C\C(C)=C\[C@@H](C)C(=O)[C@@H](C)C/C(C)=C/C=C/[C@H](OC)[C@@H]([C@@H](C)[C@@H](O)[C@H](C)[C@@]2(O)C[C@@H](O)[C@H](C)[C@@H](C(C)C)O2)OC1=O [compound 20]
- Lysotracker IC50 (V-ATPase [5]): above the activity threshold
- Nef inhibitory potency, in words (relative to parent or comparator) (HIV-Nef [6]): reduced activity at all concentrations tested
- Nef IC50 (HIV-Nef [6]): above the activity threshold

Compound: CO/C1=C\C(C)=C\[C@@H](C)C(=O)[C@@H](C)C/C(C)=C/C=C/[C@H](OC)[C@@H]([C@@H](C)[C@@H](O)[C@H](C)[C@@]2(O)CC(=O)[C@H](C)[C@@H](C(C)C)O2)OC1=O [compound 21]
- Lysotracker IC50 (V-ATPase [5]): above the activity threshold
- Nef IC50 (HIV-Nef [6]): above the activity threshold

Compound: C/C=C/[C@H]1O[C@@](O)([C@@H](C)[C@H](O)[C@H](C)[C@H]2OC(=O)/C(OC)=C/C(C)=C/[C@@H](C)[C@@H](O)[C@@H](C)[C@@H](O)[C@H](C)C/C(C)=C/C=C/[C@@H]2OC)C[C@@H](O[C@H]2C[C@@H](O)[C@H](OC(N)=O)[C@@H](C)O2)[C@@H]1C [compound 22, concanamycin B, reference compound]
- V-ATPase inhibition (Lysotracker), in words (V-ATPase [5]): even greater decrease in V-ATPase inhibitory potency
- decrease in Nef inhibitory potency compared to CMA (1) (HIV-Nef [6]; vs CMA): ~10 fold

Compound: C/C=C/[C@H]1O[C@@](O)([C@@H](C)[C@H](O)[C@H](C)[C@H]2OC(=O)/C(OC)=C/C(C)=C/[C@@H](C)[C@@H](O)[C@@H](C)[C@@H](OC(C)=O)[C@H](C)C/C(C)=C/C=C/[C@@H]2OC)C[C@@H](O[C@H]2C[C@@H](OC(C)=O)[C@H](OC(N)=O)[C@@H](C)O2)[C@@H]1C [compound 31, 3’,9-diacetyl CMB]
- toxicity, in words (primary CD4+ T cells [7]): reducing toxicity

Compound: C/C=C/[C@H]1O[C@@](O)([C@@H](C)[C@H](O)[C@H](C)[C@H]2OC(=O)/C(OC)=C/C(C)=C/[C@@H](C)[C@@H](O)[C@@H](CC)[C@@H](OC(C)=O)[C@H](C)C/C(C)=C/C=C/[C@@H]2OC)C[C@@H](O[C@H]2C[C@@H](OC(C)=O)[C@H](OC(N)=O)[C@@H](C)O2)[C@@H]1C [compound 33, 3’,9-diacetyl CMA]
- MHC-I surface levels in cells lacking Nef (MHC-I HLA-A2): did not substantially alter MHC-I surface levels
- restoration of MHC-I levels on infected (GFP+) cells (HIV-Nef [6]): restored MHC-I levels

Compound: C/C=C/[C@H]1O[C@@H]([C@@H](C)[C@H](O)[C@H](C)[C@H]2OC(=O)/C(OC)=C/C(C)=C/[C@@H](C)[C@@H](O)[C@@H](CC)[C@@H](O)[C@H](C)C/C(C)=C/C=C/[C@@H]2OC)C[C@@H](O)[C@@H]1C [compound 38, 21-deoxy CMF]
- Nef inhibitory potency, in words (relative to parent or comparator) (HIV-Nef [6]): no change in potency

Compound: C/C=C/[C@H]1O[C@@H]([C@@H](C)[C@H](O)[C@H](C)[C@H]2OC(=O)/C(OC)=C/C(C)=C/[C@@H](C)[C@@H](O)[C@@H](CC)[C@@H](O)[C@H](C)C/C(C)=C/C=C/[C@@H]2O)C[C@@H](O)[C@@H]1C [compound 39, 21-deoxy-16-hydroxy CMF]
- reduction of Nef inhibitory activity compared to CMF (24) (HIV-Nef [6]; vs CMF): over 200 fold

Compound: bafilomycin D [Baf D]
- Nef inhibition, in words (HIV-Nef [1]): poor inhibitor
- V-ATPase inhibition, in words (V-ATPase [8]): poor inhibitor
